Literature values as cited in patent publication US10878939B2, “Methods and compositions for personalized pain management” (Children's Hospital Medical Center, priority 2014, dated 2020).

Conditions: other reports; cited from earlier work

Structure (SMILES): CN1CC[C@]23c4c5ccc(O[C@@H]6O[C@H](C(=O)O)[C@@H](O)[C@H](O)[C@H]6O)c4O[C@H]2[C@@H](O)C=C[C@H]3[C@H]1C5 [M3G, Morphine-3-Glucuronide]
- M3G metabolite formation relative to M6G formation: 7-10 fold
